Laboratory results reported in patent US6593357B1, “Pyrazole compositions useful as inhibitors of ERK” (Vertex Pharmaceuticals Incorporated, priority 2000, dated 2003).
Where two headings read alike, the source gives them in different places.

Experiments:
ERK2 = ERK2 (Homo sapiens, UniProt P28482); test: ERK2 inhibition, spectrophotometric coupled-enzyme assay; format: biochemical; conditions: activated ERK2 10 nM, 65 μM ATP, 30° C., pH 7.5
Aurora2 = target: T1, Aurora2 (Homo sapiens, UniProt O14965); test: Aurora inhibition, standard coupled enzyme assay; format: biochemical; conditions: 40 μM ATP, 30° C.; read-out: Aurora2 Inhibitory Activity (IC50 class)
T1 sequence (O14965 1-403): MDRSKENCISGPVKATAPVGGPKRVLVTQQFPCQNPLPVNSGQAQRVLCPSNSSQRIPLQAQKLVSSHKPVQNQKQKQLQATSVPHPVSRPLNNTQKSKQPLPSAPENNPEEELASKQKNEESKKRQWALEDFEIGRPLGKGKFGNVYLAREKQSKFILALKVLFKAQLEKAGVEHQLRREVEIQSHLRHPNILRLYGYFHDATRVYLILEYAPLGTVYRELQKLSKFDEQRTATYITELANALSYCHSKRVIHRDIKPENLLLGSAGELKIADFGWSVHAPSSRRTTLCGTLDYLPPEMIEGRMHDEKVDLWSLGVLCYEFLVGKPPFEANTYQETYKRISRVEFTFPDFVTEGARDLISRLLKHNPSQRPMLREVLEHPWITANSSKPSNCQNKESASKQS
Description: Compounds were screened in the following manner for their ability to inhibit Aurora using a standard coupled enzyme assay. To an assay stock buffer solution containing 0.1M HEPES 7.5, 10 mM MgCl2, 25 mM NaCl, 2.5 mM phosphoenolpyruvate, 300 μM NADH, 30 μg/mL pyruvate kinase, 10 μg/mL lactate dehydrogenase, 40 μM ATP, and 800 μM peptide (LRRASLG, American Peptide, Sunnyvale, Calif.) was added a 30 μM solution of the compound in DMSO and the resulting mixture incubated at 30° C. for 10 min. The reaction was initiated by the addition of 10 μL of 70 nM Aurora and 1 mM DTT. The rates of reaction were obtained by monitoring absorbance at 340 nm over a 5 minute read time at 30° C. using a BioRad Ultramark plate reader (Hercules, Calif.). The IC50 was determined from the rate data as a function of inhibitor concentration.
The compound numbers correspond to the compound numbers in Table 1.

[1] = read-out: ERK2 Inhibitory Activity (Ki class)
[2] = ERK2 Inhibitory Activity (Ki class)

Chain of ERK2 (P28482 whole entry): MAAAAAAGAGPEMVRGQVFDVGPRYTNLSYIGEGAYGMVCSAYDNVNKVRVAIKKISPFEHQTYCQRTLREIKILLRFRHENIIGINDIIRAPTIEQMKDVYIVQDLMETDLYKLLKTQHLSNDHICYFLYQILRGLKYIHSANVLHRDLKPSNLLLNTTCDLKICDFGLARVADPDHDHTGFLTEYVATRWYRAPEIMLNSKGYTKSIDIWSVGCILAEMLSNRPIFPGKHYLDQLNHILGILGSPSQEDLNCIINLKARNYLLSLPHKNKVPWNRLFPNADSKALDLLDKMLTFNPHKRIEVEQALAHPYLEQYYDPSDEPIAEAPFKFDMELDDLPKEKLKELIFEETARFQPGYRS

Row | SMILES | Ki (ERK2; [1]) [µM] | IC50 (Aurora2) [µM] | Ki (ERK2; [2]) [µM]
1 | O=C(NOCc1ccccc1)c1cc(-c2[nH]ncc2-c2cc(Cl)cc(Cl)c2)c[nH]1 [II-51] | < 1 | 5 to 10 | 
2 | O=C(NOCc1ccccc1)c1cc(-c2[nH]ncc2-c2ccc(Cl)c(Cl)c2)c[nH]1 [II-54] | < 1 | 5 to 10 | 
3 | O=C(NOCc1ccccc1)c1cc(-c2[nH]ncc2-c2cccc(Cl)c2)c[nH]1 [II-57] |  | < 5 | 
4 | O=C(NCc1ccncc1)c1cc(-c2[nH]ncc2-c2ccc(Cl)c(Cl)c2)c[nH]1 [II-61] | < 1 | < 5 | 
5 | CCN(C)C(=O)c1cc(-c2[nH]ncc2-c2ccc(Cl)c(Cl)c2)c[nH]1 [II-64] | < 1 | < 5 | 
6 | CCN(C)C(=O)c1cc(-c2[nH]ncc2-c2cc(Cl)cc(Cl)c2)c[nH]1 [II-66] | < 1 | 5 to 10 | 
7 | O=C(NCc1ccncc1)c1cc(-c2[nH]ncc2-c2ccc(F)c(Cl)c2)c[nH]1 [II-70] | < 1 | 5 to 10 | 
8 | O=C(NC(CO)c1ccccc1)c1cc(-c2[nH]ncc2-c2cccc(Br)c2)c[nH]1 (stereo not drawn) [II-72] | < 1 | 5 to 10 | 
9 | O=C(NCc1cccnc1)c1cc(-c2[nH]ncc2-c2cc(Cl)cc(Cl)c2)c[nH]1 [II-76] | < 1 | < 5 | 
10 | O=C(NOCc1ccccc1)c1cc(-c2[nH]ncc2-c2ccc(F)c(Cl)c2)c[nH]1 [II-77] | < 1 | < 5 | 
11 | CCN(C)C(=O)c1cc(-c2[nH]ncc2-c2cccc(Cl)c2F)c[nH]1 [II-81] | < 1 | < 5 | 
12 | O=C(NOCc1ccccc1)c1cc(-c2[nH]ncc2-c2cccc(Cl)c2F)c[nH]1 [II-82] | < 1 | < 5 | 
13 | O=C(NOCc1ccccc1)c1cc(-c2[nH]ncc2-c2ccc(F)c(F)c2)c[nH]1 [II-85] | < 1 | 5 to 10 | 
14 | O=C(NCc1ccncc1)c1cc(-c2[nH]ncc2-c2ccc(F)c(F)c2)c[nH]1 [II-88] | < 1 | 5 to 10 | 
15 | CCN(C)C(=O)c1cc(-c2n[nH]cc2-c2cccc(Cl)c2)c[nH]1 [II-93] |  | < 5 | 
16 | O=C(NCc1ccncc1)c1cc(-c2[nH]ncc2-c2cc(F)ccc2F)c[nH]1 [II-98] | < 1 | 5 to 10 | 
17 | O=C(NOCc1ccccc1)c1cc(-c2[nH]ncc2-c2ccc(Cl)cc2)c[nH]1 [II-99] | < 1 | < 5 | 
18 | O=C(NCc1cccnc1)c1cc(-c2[nH]ncc2-c2ccc(F)c(Cl)c2)c[nH]1 [II-101] | < 1 | < 5 | 
19 | O=C(NOCc1ccccc1)c1cc(-c2[nH]ncc2-c2cccc(F)c2F)c[nH]1 [II-103] | < 1 | 5 to 10 | 
20 | O=C(NCC1CCCO1)c1cc(-c2[nH]ncc2-c2cccc(Cl)c2F)c[nH]1 (stereo not drawn) [II-106] | < 1 | 5 to 10 | 
21 | CCN(C)C(=O)c1cc(-c2[nH]ncc2-c2ccc(F)c(Cl)c2)c[nH]1 [II-108] | < 1 | 5 to 10 | 
22 | O=C(c1cc(-c2n[nH]cc2-c2cc(Cl)cc(Cl)c2)c[nH]1)N1CCOCC1 [II-112] | < 1 | < 5 | 
23 | O=C(NOCc1ccccc1)c1cc(-c2[nH]ncc2-c2cc(F)ccc2F)c[nH]1 [II-113] | < 1 | < 5 | 

Row | SMILES | Ki (ERK2; [1]) [µM] | IC50 (Aurora2) [µM] | Ki (ERK2; [2]) [µM]
24 | O=C(NCc1cccnc1)c1cc(-c2[nH]ncc2-c2cccc(Cl)c2F)c[nH]1 [II-114] | < 1 | < 5 | 
25 | O=C(NCc1ccncc1)c1cc(-c2[nH]ncc2-c2cccc(Cl)c2F)c[nH]1 [II-115] | < 1 | < 5 | 
26 | O=C(NCc1ccncc1)c1cc(-c2[nH]ncc2-c2cccc(F)c2F)c[nH]1 [II-141] | 1 to 5 | < 5 | 
27 | O=C(NCCc1cnc[nH]1)c1cc(-c2[nH]ncc2-c2cccc(Cl)c2)c[nH]1 [II-142] | 1 to 5 | < 5 | 
28 | CCOC(=O)c1cc(-c2[nH]ncc2-c2cccc(Cl)c2)c[nH]1 [II-151] | 1 to 5 |  | 
29 | CNC(=O)c1cc(-c2[nH]ncc2-c2cccc(Br)c2)c[nH]1 [II-152] | 1 to 5 |  | 
30 | O=C(NC1c2ccccc2CC1O)c1cc(-c2[nH]ncc2-c2cccc(Cl)c2)c[nH]1 (stereo not drawn) [II-155] |  |  | 1 to 5
31 | O=C(c1cc(-c2[nH]ncc2-c2cccc(Br)c2)c[nH]1)N(CCCO)Cc1ccncc1 [II-156] | 1 to 5 |  | 
32 | CCOC(=O)c1cc(-c2[nH]ncc2-c2cccc(Br)c2)c[nH]1 [II-157] | 1 to 5 |  | 
33 | CC(C)NC(=O)c1cc(-c2[nH]ncc2-c2cccc(C(=O)O)c2)c[nH]1 [II-160] | 1 to 5 |  | 
34 | CC(C)ONC(=O)c1cc(-c2[nH]ncc2-c2cccc(Br)c2)c[nH]1 [II-161] | > 5 |  | 
35 | CCOC(=O)c1cc(-c2[nH]ncc2-c2cccc(F)c2)c[nH]1 [II-162] | > 5 |  | 
36 | CCOC(=O)c1cc(-c2[nH]ncc2-c2ccc(N)cc2)c[nH]1 [II-164] | > 5 |  | 
37 | CCOC(=O)c1cc(-c2[nH]ncc2-c2ccc([N+](=O)[O-])cc2)c[nH]1 [II-165] | > 5 |  | 
38 | CC1CCN(C(=O)c2cc(-c3[nH]ncc3-c3ccccc3)c[nH]2)CC1 [II-166] | > 5 |  | 
39 | O=C(NCc1cccnc1)c1cc(-c2[nH]ncc2-c2cc(F)ccc2F)c[nH]1 [II-181] |  | 5 to 10 | 
40 | O=C(NCC1CCCO1)c1cc(-c2[nH]ncc2-c2cc(F)ccc2F)c[nH]1 (stereo not drawn) [II-188] |  | > 10 | 
41 | O=C(NCc1ccncc1)c1cc(-c2[nH]ncc2-c2ccc(Cl)cc2)c[nH]1 [II-211] |  | 5 to 10 | 
42 | COc1ccc(-c2cn[nH]c2-c2c[nH]c(C(=O)NCc3ccncc3)c2)cc1OC [II-212] |  | 5 to 10 | 
43 | O=C(NCc1ccncc1)c1cc(-c2[nH]ncc2-c2ccc3c(c2)OCO3)c[nH]1 [II-213] |  | 5 to 10 | 
44 | O=C(NCc1cccnc1)c1cc(-c2[nH]ncc2-c2ccc(Cl)cc2)c[nH]1 [II-214] |  | 5 to 10 | 
45 | COc1ccc(-c2cn[nH]c2-c2c[nH]c(C(=O)NCc3cccnc3)c2)cc1OC [II-215] |  | 5 to 10 | 
46 | O=C(NCc1cccnc1)c1cc(-c2[nH]ncc2-c2ccc3c(c2)OCO3)c[nH]1 [II-216] |  | 5 to 10 | 

Row | SMILES | Ki (ERK2; [1]) [µM] | IC50 (Aurora2) [µM] | Ki (ERK2; [2]) [µM]
47 | COc1ccc(-c2cn[nH]c2-c2c[nH]c(C(=O)NCC3CCCO3)c2)cc1OC (stereo not drawn) [II-218] |  | 5 to 10 | 
48 | COc1ccc(-c2cn[nH]c2-c2c[nH]c(C(=O)N3CCOCC3)c2)cc1OC [II-228] |  | < 5 | 
49 | O=C(NCCc1cnc[nH]1)c1cc(-c2[nH]ncc2-c2ccc(Cl)cc2)c[nH]1 [II-252] |  | 5 to 10 | 
50 | O=C(NCCc1cnc[nH]1)c1cc(-c2[nH]ncc2-c2ccc(Cl)c(Cl)c2)c[nH]1 [II-254] |  | < 5 | 
51 | O=C(NCCc1cnc[nH]1)c1cc(-c2[nH]ncc2-c2cccc(Cl)c2F)c[nH]1 [II-255] |  | 5 to 10 | 
52 | CCN(C)C(=O)c1cc(-c2[nH]ncc2-c2ccc(OC)c(OC)c2)c[nH]1 [II-258] |  | > 10 | 
53 | COc1ccc(-c2cn[nH]c2-c2c[nH]c(C(=O)NCC3CCCN(C(=O)OC(C)(C)C)C3)c2)cc1OC (stereo not drawn) [II-259] |  | 5 to 10 | 
54 | COc1ccc(-c2cn[nH]c2-c2c[nH]c(C(=O)NOCc3ccccc3)c2)cc1OC [II-260] |  | > 10 | 
55 | O=C(NCCc1cnc[nH]1)c1cc(-c2[nH]ncc2-c2cc(Cl)cc(Cl)c2)c[nH]1 [II-266] |  | 5 to 10 | 
56 | O=C(NCc1ccccc1)c1cc(-c2[nH]ncc2-c2cccc([N+](=O)[O-])c2)c[nH]1 [II-285] | 1 to 5 |  | 
57 | CCN1CCCC1CNC(=O)c1cc(-c2n[nH]cc2-c2cccc(Cl)c2)c[nH]1 (stereo not drawn) [II-286] |  |  | > 5
58 | O=C(c1cc(-c2[nH]ncc2-c2cccc(Br)c2)c[nH]1)N(Cc1ccccc1)[C@H](CO)c1ccccc1 [II-288] | 1 to 5 |  | 
59 | O=C(NCc1ccncc1)c1cc(-c2[nH]ncc2-c2cccc([N+](=O)[O-])c2)c[nH]1 [II-289] | > 5 |  | 
60 | O=C(NC(COc1ccccc1)c1ccc2c(c1)OCCO2)c1cc(-c2[nH]ncc2-c2cccc(Br)c2)c[nH]1 (stereo not drawn) [II-290] | 1 to 5 |  | 
61 | CCN(C)C(=O)c1cc(-c2[nH]ncc2-c2cccc(F)c2)c[nH]1 [II-291] | > 5 |  | 
62 | CCN(C)C(=O)c1cc(-c2[nH]ncc2-c2cccc(OC)c2)c[nH]1 [II-292] | > 5 |  | 
63 | O=C(N[C@@H](CO)Cc1ccc(O)cc1)c1cc(-c2[nH]ncc2-c2cccc(Br)c2)c[nH]1 [II-293] | > 5 |  | 
64 | O=C(N[C@@H](CO)Cc1cnc[nH]1)c1cc(-c2[nH]ncc2-c2cccc(Br)c2)c[nH]1 [II-294] | > 5 |  | 
65 | O=C(NC(CO)(CO)CO)c1cc(-c2[nH]ncc2-c2cccc(Br)c2)c[nH]1 [II-295] | > 5 |  | 
66 | COc1ccc(C[C@H](CO)NC(=O)c2cc(-c3[nH]ncc3-c3cccc(Br)c3)c[nH]2)cc1OC [II-296] | > 5 |  | 
67 | CN(C)CCNC(=O)c1cc(-c2[nH]ncc2-c2ccccc2)c[nH]1 [II-297] | > 5 |  | 
68 | O=C(NCc1ccccc1)c1cc(-c2[nH]ncc2-c2cccc(Br)c2)c[nH]1 [II-299] | > 5 |  | 
